Source: US8759104B2, “Cationic lipids” (The University Court of the University of Edinburgh, priority 2010, dated 2014)

Test system: HeLa cells
Assay: Transfection of pEGFP-C1 reporter plasmid into HeLa cells, GFP expression by flow cytometry
Assay type: cell-based, human
Details: HeLa cells 48 h after transfection with reporter plasmid, flow cytometry
Experimental: The corresponding cationic lipid (1 mM in methanol) were mixed in different proportions with DOPE (10 mg/mL in chloroform) and the organic solvent removed by evaporation in an oven (37° C.) overnight. The resultant thin films were then hydrated with PBS. The solutions were vortexed (10-20 s) and incubated at ambient temperature for 20 min. Plasmid DNA or siRNA solution (0.04 mg/mL in PBS or another isotonic solution) was subsequently added and the solution vortexed (10-20 s). The lipoplexes were incubated at room temperature for 20 min before being used.
Human HeLa cells were grown in RPMI supplemented with 4 mM glutamine, 10% FCS and 100 units/ml penicillin/streptomycin (RPMI-CM) until 80% confluence. HEK293 and B16F10 cells were grown in DMEM supplemented with 4 mM glutamine, 10% FCS and 100 units/ml penicillin/streptomycin (DMEM-CM) until 80% confluence. Cells were then suspended using trypsin/EDTA and counted. 2×10^4 cells in 150 μL of media per well were seeded in 96 well plates and incubated overnight. The day afterwards, the different lipoplex formulations were added. Each experiment was performed in quadruplicate, using Effectene® Transfection Reagent (Qiagen), Lipofectamine™ 2000 (Invitrogen) and Fugene (Roche) as positive controls and untreated cells as negative controls. After two days incubation at 37° C. and 5% CO2 (the change of media after transfection was not necessary), the green fluorescent protein (GFP) expression, as a consequence of transfecting the pEGFP-C1, was evidenced using a fluorescent microscope (Leica) and measured by flow cytometry. For the flow cytometry analysis, cells were washed twice with PBS, detached with trypsin/EDTA, harvested with 2% ferum bovine serum (FBS) in PBS, centrifuged and resuspended with 2% FBS in PBS and analyzed using a BD FACSaria flow cytometer. Transfection efficiency was measured as percentage of transfected cells.
Reagents that obtained greater than 50% transfection were also analyzed against HEK293 and B16F10 cell lines. Transfection results (+ percentages of transfection between 5-25%; ++ percentages of transfection between 25-50%; N.D. not determined). MTT toxicity assay results are indicated between brackets with 100% being cell viability of untreated cells.

| SMILES | Transfection results (percentage of transfected cells), HeLa |
| --- | --- |
| CCCCCCCCCCCCCCCCCC(=O)NCCN(CCNC(=O)CCCCCCCCCCCCCCCCC)C(=O)/C=C\C(=O)N[C@@H](CCCNC(=N)N)C(N)=O.O=C(O)C(F)(F)F [Compound A1-Sp2-S] | + (percentages of transfection between 5-25%) |
| CCCCCCCCCCCCCCCCCCCCCCCC(=O)NCCN(CCNC(=O)CCCCCCCCCCCCCCCCCCCCCCC)C(=O)CCC(=O)N[C@@H](CCCNC(=N)N)C(N)=O.O=C(O)C(F)(F)F [Compound A1-Sp1-L] | + (percentages of transfection between 5-25%) |
| CCCCCCCC/C=C\CCCCCCCC(=O)NCCCN(CCCNC(=O)CCCCCCC/C=C\CCCCCCCC)C(=O)CCC(=O)N[C@@H](CCCNC(=N)N)C(=O)N[C@@H](CCCNC(=N)N)C(N)=O.O=C(O)C(F)(F)F.O=C(O)C(F)(F)F [Compound A2-Sp3-O] | ++ (percentages of transfection between 25-50%) |
| CCCCCCCCCCCCCCCCCC(=O)NCCCN(CCCNC(=O)CCCCCCCCCCCCCCCCC)C(=O)/C=C\C(=O)N[C@@H](CCCNC(=N)N)C(=O)N[C@@H](CCCNC(=N)N)C(=O)N[C@@H](CCCNC(=N)N)C(N)=O.O=C(O)C(F)(F)F.O=C(O)C(F)(F)F.O=C(O)C(F)(F)F [Compound A3-Sp4-S] | + (percentages of transfection between 5-25%) |
| CCCCCCCC/C=C\CCCCCCCC(=O)NCCCN(CCCNC(=O)CCCCCCC/C=C\CCCCCCCC)C(=O)/C=C\C(=O)N[C@@H](CCCNC(=N)N)C(N)=O.O=C(O)C(F)(F)F [Compound A1-Sp4-O] | + (percentages of transfection between 5-25%) |
| CCCCCCCCCCCCCCCCCCCC(=O)NCCCN(CCCNC(=O)CCCCCCCCCCCCCCCCCCC)C(=O)CCC(=O)N[C@@H](CCCNC(=N)N)C(N)=O.O=C(O)C(F)(F)F [Compound A1-Sp3-A] | + (percentages of transfection between 5-25%) |
| CCCCCCCCCCCCCCCCCCCC(=O)NCCCN(CCCNC(=O)CCCCCCCCCCCCCCCCCCC)C(=O)CCC(=O)N[C@@H](CCCNC(=N)N)C(=O)N[C@@H](CCCNC(=N)N)C(N)=O.O=C(O)C(F)(F)F.O=C(O)C(F)(F)F [Compound A2-Sp3-A] | + (percentages of transfection between 5-25%) |
| CCCCCCCCCCCCCCCCCC(=O)NCCCN(CCCNC(=O)CCCCCCCCCCCCCCCCC)C(=O)/C=C\C(=O)N[C@@H](CCCNC(=N)N)C(=O)N[C@@H](CCCNC(=N)N)C(N)=O.O=C(O)C(F)(F)F.O=C(O)C(F)(F)F [Compound A2-Sp4-S] | + (percentages of transfection between 5-25%) |
| CCCCCCCCCCCCCCCCCC(=O)NCCN(CCNC(=O)CCCCCCCCCCCCCCCCC)C(=O)CCC(=O)N[C@@H](CCCNC(=N)N)C(=O)N[C@@H](CCCNC(=N)N)C(N)=O.O=C(O)C(F)(F)F.O=C(O)C(F)(F)F [Compound A2-Sp1-S] | + (percentages of transfection between 5-25%) |
| CCCCCCCCCCCCCCCCCCCCCCCC(=O)NCCCN(CCCNC(=O)CCCCCCCCCCCCCCCCCCCCCCC)C(=O)CCC(=O)N[C@@H](CCCNC(=N)N)C(N)=O.O=C(O)C(F)(F)F [Compound A1-Sp3-L] | + (percentages of transfection between 5-25%) |
| CCCCCCCCCCCCCCCC(=O)NCCCN(CCCNC(=O)CCCCCCCCCCCCCCC)C(=O)/C=C\C(=O)N[C@@H](CCCNC(=N)N)C(=O)N[C@@H](CCCNC(=N)N)C(=O)N[C@@H](CCCNC(=N)N)C(N)=O.O=C(O)C(F)(F)F.O=C(O)C(F)(F)F.O=C(O)C(F)(F)F [Compound A3-Sp4-P] | + (percentages of transfection between 5-25%) |
| CCCCCCCCCCCCCCCCCCCCCCCC(=O)NCCN(CCNC(=O)CCCCCCCCCCCCCCCCCCCCCCC)C(=O)/C=C\C(=O)N[C@@H](CCCNC(=N)N)C(=O)N[C@@H](CCCNC(=N)N)C(=O)N[C@@H](CCCNC(=N)N)C(N)=O.O=C(O)C(F)(F)F.O=C(O)C(F)(F)F.O=C(O)C(F)(F)F [Compound A3-Sp2-L] | + (percentages of transfection between 5-25%) |
| CCCCCCCCCCCCCCCCCCCCCCCC(=O)NCCCN(CCCNC(=O)CCCCCCCCCCCCCCCCCCCCCCC)C(=O)CCC(=O)N[C@@H](CCCNC(=N)N)C(=O)N[C@@H](CCCNC(=N)N)C(N)=O.O=C(O)C(F)(F)F.O=C(O)C(F)(F)F [Compound A2-Sp3-L] | + (percentages of transfection between 5-25%) |
| CCCCCCCCCCCCCCCCCC(=O)NCCN(CCNC(=O)CCCCCCCCCCCCCCCCC)C(=O)/C=C\C(=O)N[C@@H](CCCNC(=N)N)C(=O)N[C@@H](CCCNC(=N)N)C(N)=O.O=C(O)C(F)(F)F.O=C(O)C(F)(F)F [Compound A2-Sp2-S] | ++ (percentages of transfection between 25-50%) |
| CCCCCCCCCCCCCCCCCCCCCCCC(=O)NCCN(CCNC(=O)CCCCCCCCCCCCCCCCCCCCCCC)C(=O)CCC(=O)N[C@@H](CCCNC(=N)N)C(=O)N[C@@H](CCCNC(=N)N)C(N)=O.O=C(O)C(F)(F)F.O=C(O)C(F)(F)F [Compound A2-Sp1-L] | + (percentages of transfection between 5-25%) |
| CCCCCCCCCCCCCCCCCCCCCCCC(=O)NCCCN(CCCNC(=O)CCCCCCCCCCCCCCCCCCCCCCC)C(=O)/C=C\C(=O)N[C@@H](CCCNC(=N)N)C(N)=O.O=C(O)C(F)(F)F [Compound A1-Sp4-L] | + (percentages of transfection between 5-25%) |
| CCCCCCCCCCCCCCCC(=O)NCCCN(CCCNC(=O)CCCCCCCCCCCCCCC)C(=O)CCC(=O)N[C@@H](CCCNC(=N)N)C(N)=O.O=C(O)C(F)(F)F [Compound A1-Sp3-P] | + (percentages of transfection between 5-25%) |
| CCCCCCCCCCCCCCCCCCCC(=O)NCCN(CCNC(=O)CCCCCCCCCCCCCCCCCCC)C(=O)/C=C\C(=O)N[C@@H](CCCNC(=N)N)C(=O)N[C@@H](CCCNC(=N)N)C(N)=O.O=C(O)C(F)(F)F.O=C(O)C(F)(F)F [Compound A2-Sp2-A] | ++ (percentages of transfection between 25-50%) |
| CCCCCCCC/C=C\CCCCCCCC(=O)NCCN(CCNC(=O)CCCCCCC/C=C\CCCCCCCC)C(=O)CCC(=O)N[C@@H](CCCNC(=N)N)C(N)=O.O=C(O)C(F)(F)F [Compound A1-Sp1-O] | + (percentages of transfection between 5-25%) |
| CCCCCCCC/C=C\CCCCCCCC(=O)NCCCN(CCCNC(=O)CCCCCCC/C=C\CCCCCCCC)C(=O)/C=C\C(=O)N[C@@H](CCCNC(=N)N)C(=O)N[C@@H](CCCNC(=N)N)C(=O)N[C@@H](CCCNC(=N)N)C(N)=O.O=C(O)C(F)(F)F.O=C(O)C(F)(F)F.O=C(O)C(F)(F)F [Compound A3-Sp4-O] | + (percentages of transfection between 5-25%) |
| CCCCCCCCCCCCCCCCCC(=O)NCCCN(CCCNC(=O)CCCCCCCCCCCCCCCCC)C(=O)CCC(=O)N[C@@H](CCCNC(=N)N)C(N)=O.O=C(O)C(F)(F)F [Compound A1-Sp3-S] | + (percentages of transfection between 5-25%) |
| CCCCCCCCCCCCCCCCCC(=O)NCCCN(CCCNC(=O)CCCCCCCCCCCCCCCCC)C(=O)/C=C\C(=O)N[C@@H](CCCNC(=N)N)C(N)=O.O=C(O)C(F)(F)F [Compound A1-Sp4-S] | + (percentages of transfection between 5-25%) |
| CCCCCCCCCCCCCCCCCCCC(=O)NCCN(CCNC(=O)CCCCCCCCCCCCCCCCCCC)C(=O)/C=C\C(=O)N[C@@H](CCCNC(=N)N)C(=O)N[C@@H](CCCNC(=N)N)C(=O)N[C@@H](CCCNC(=N)N)C(N)=O.O=C(O)C(F)(F)F.O=C(O)C(F)(F)F.O=C(O)C(F)(F)F [Compound A3-Sp2-A] | + (percentages of transfection between 5-25%) |
| CCCCCCCCCCCCCCCCCCCCCCCC(=O)NCCN(CCNC(=O)CCCCCCCCCCCCCCCCCCCCCCC)C(=O)CCC(=O)N[C@@H](CCCNC(=N)N)C(=O)N[C@@H](CCCNC(=N)N)C(=O)N[C@@H](CCCNC(=N)N)C(N)=O.O=C(O)C(F)(F)F.O=C(O)C(F)(F)F.O=C(O)C(F)(F)F [Compound A3-Sp1-L] | + (percentages of transfection between 5-25%) |
| CCCCCCCCCCCCCCCC(=O)NCCCN(CCCNC(=O)CCCCCCCCCCCCCCC)C(=O)/C=C\C(=O)N[C@@H](CCCNC(=N)N)C(N)=O.O=C(O)C(F)(F)F [Compound A1-Sp4-P] | + (percentages of transfection between 5-25%) |
| CCCCCCCCCCCCCCCC(=O)NCCCN(CCCNC(=O)CCCCCCCCCCCCCCC)C(=O)/C=C\C(=O)N[C@@H](CCCNC(=N)N)C(=O)N[C@@H](CCCNC(=N)N)C(N)=O.O=C(O)C(F)(F)F.O=C(O)C(F)(F)F [Compound A2-Sp4-P] | + (percentages of transfection between 5-25%) |
